Measurements published in patent publication US20090142370A1, “Method for preventing skin-cellular aging by using green algae extract and cosmetic composition containing green algae extract” (priority 2007, published 2009).

Tests used:
Type in all cases: cell-based
MMP [1] = assay: PMA-induced MMP production in fibroblasts, quantified (FIG. 1); settings: 5-hour incubation, control about 25, PMA alone about 70 ng/mL
Description: (§1) The experiments are conducted under two kinds of conditions, wherein one uses phorbol 12-myristate 13-acetate (PMA) to induce skin-cells to produce MMP while the other uses UVB to induce skin-cells to produce MMP and the inhibitory effects of the green algae extract of the present invention on MMP produced under both conditions are tested.
As known by those skilled in the art, PMA is an activator of protein kinase C (PKC) in fibroblasts, and PKC is an activator of MMP. Further, unduly activated MMP can break collagens as well as elastins in fibroblasts and in turn lead to aged skin. In the experiment shown in FIG. 1, Rectangle (1) belongs to a control group; Rectangle (2) belongs to a comparison group; and Rectangles (3), (4), (5) and (6) belong to an experimental group. A 5-hour incubation is conducted in each of the groups.

TIMP1 = assay: PMA-induced gene expression in fibroblasts, RT-PCR (FIG. 4); settings: 100 nM PMA + 0.4 nM GM
Excerpt: (§2) The […] inhibitor proteins TIMP1 and TIMP3 exist in fibroblasts to counterbalance metalloproteinases MMP1 and MMP3.

TIMP3 = assay: as above; settings: 100 nM PMA + 0.4 nM GM
Excerpt: as §2

MMP3 = assay: as above; settings: 100 nM PMA + 0.4 nM GM
Excerpt: as §2

MMP [2] = assay: PMA-induced MMP in fibroblasts, Western blotting (FIG. 2); settings: 100 nM PMA + 0.4 nM GM
Excerpt: The images in the upper picture represent MMP expressions while the images in the lower picture are provided as a house keeping gene expressed protein.

MMP [3] = assay: UVB-induced MMP in fibroblasts, quantified (FIG. 5); settings: no UV about 3.5, UV alone about 6.0 ng/mL
Description: as §1

## CNC(=O)[C@H](Cc1c[nH]c2ccccc12)NC(=O)[C@@H](CC(=O)NO)CC(C)C [GM]
MMP [1]; 100 nM PMA + 0.4 nM GM
  average content of MMP: about 50 ng/mL
TIMP1
  TIMP1 genetic expression (RT-PCR) compared with PMA alone: fails to significantly enhance
TIMP3
  TIMP3 genetic expression (RT-PCR) compared with PMA alone: fails to significantly enhance
MMP3
  MMP3 mRNA expression (RT-PCR) compared with PMA alone: less
MMP [2]
  MMP activity (Western blot) compared with PMA alone: slightly inhibits

## O=C1O[C@H]([C@@H](O)CO)C(O)=C1O [Vitamin C]
MMP [3]; 0.15 mM Vitamin C added before 1.5 hours UV
  average content of MMP: 9.0 ng/mL
MMP [1]; 100 nM PMA + 0.15 nM Vitamin C
  average content of MMP: about 60 ng/mL

## Vitamin E
MMP [3]; 25 uM Vitamin E added before 1.5 hours UV
  average content of MMP: 6.0 ng/mL
